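Grown in 96-well plates, cells were treated for 48 hours with each compound at five concentrations. Insufficient inhibition: endpoint recorded as highest concentration tested. The concentration for 50% growth inhibition is given as GI50.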 The source made the active and inactive calls. Rule as the data show it: active = GI50 up to about 1.1 µM and inactive = higher. Where a SMILES comes first, the peptide text is derived from it. The star is where a group is joined. Boc = CC(C)(C)OC(=O)*
How the values were obtained:
Test in all cases: NCI anticancer screen, dose series, 48 h
PC-3 = system: PC-3
DU-145 = system: DU-145
OVCAR-4 = system: OVCAR-4
CAKI-1 = system: CAKI-1
SNB-75 = system: SNB-75
MCF7 = system: MCF7
HL-60 = system: HL-60
SF-539 = system: SF-539
TK-10 = system: TK-10
HCC 2998 = system: HCC 2998
UACC-62 = system: UACC-62
SK-MEL-5 = system: SK-MEL-5
HCT-116 = system: HCT-116
LOX IMVI = system: LOX IMVI
SF-295 = system: SF-295
M14 = system: M14
BT-549 = system: BT-549
EKVX = system: EKVX
SK-OV-3 = system: SK-OV-3

Row | SMILES | GI50 (PC-3) | GI50 (DU-145) | GI50 (OVCAR-4) | GI50 (CAKI-1) | GI50 (SNB-75) | GI50 (MCF7) | GI50 (HL-60) | GI50 (SF-539) | GI50 (TK-10) | GI50 (HCC 2998) | GI50 (UACC-62) | GI50 (SK-MEL-5) | GI50 (HCT-116) | GI50 (LOX IMVI) | GI50 (SF-295) | GI50 (M14) | GI50 (BT-549) | GI50 (EKVX) | GI50 (SK-OV-3)
1 | CC1=C(C(=O)OC(C)C)C(c2ccccc2C(F)(F)F)C(C(=O)OC(CO[N+](=O)[O-])CO[N+](=O)[O-])=C(C)N1 (configuration not stated) | 2.56 µM (inactive) | 16.6 µM (inactive) | 5.3 µM (inactive) | 9.98 µM (inactive) | 2.21 µM (inactive) | 4.22 µM (inactive) | 95.5 µM (inactive) | 9.48 µM (inactive) | 23.9 µM (inactive) | 21.6 µM (inactive) | 3.99 µM (inactive) | 5.52 µM (inactive) | 3.76 µM (inactive) | 4.61 µM (inactive) | 4.21 µM (inactive) | 6.98 µM (inactive) | 5.11 µM (inactive) | 13.3 µM (inactive) | 11.2 µM (inactive)
2 | C=C1[C@H](OC(=O)C(C)C)[C@@H](OC(C)=O)[C@@H](OC(C)=O)C(C)(C)[C@@H]2O[C@H]2[C@@H](C)C(=O)[C@@]2(OC(C)=O)C[C@@](C)(OC(C)=O)[C@H](OC(C)=O)[C@@H]2[C@H]1OC(C)=O | > 100 µM (inactive) | > 100 µM (inactive) | > 100 µM (inactive) | > 100 µM (inactive) | 0.69 µM (active) | > 100 µM (inactive) | > 100 µM (inactive) | > 100 µM (inactive) | > 100 µM (inactive) | > 100 µM (inactive) | > 100 µM (inactive) | > 100 µM (inactive) | > 100 µM (inactive) | > 100 µM (inactive) | > 100 µM (inactive) | > 100 µM (inactive) | > 100 µM (inactive) | > 100 µM (inactive) | > 100 µM (inactive)
3 | COC(=O)C1CC2(C)C=CC1N(C(=O)OCc1ccccc1)C2 (configuration not stated) | 87.7 µM (inactive) | > 100 µM (inactive) | 40 µM (inactive) | > 100 µM (inactive) | 28.5 µM (inactive) | 52.7 µM (inactive) | 24.2 µM (inactive) | > 100 µM (inactive) | > 100 µM (inactive) | > 100 µM (inactive) | 51.5 µM (inactive) | 34.8 µM (inactive) | 40.8 µM (inactive) | > 100 µM (inactive) | 42.4 µM (inactive) | 63.8 µM (inactive) | 54.1 µM (inactive) | 38.2 µM (inactive) | 27.7 µM (inactive)
4 | COC(=O)CNC(=O)C(Cc1ccccc1)NC(=O)C(CCSC)NC(=O)C(Cc1ccc(O)cc1)NC(=O)OC(C)(C)C (configuration not stated) (Boc-YMFG-OMe; configuration not given here) | > 100 µM (inactive) | > 100 µM (inactive) | > 100 µM (inactive) | > 100 µM (inactive) | > 100 µM (inactive) | 41.8 µM (inactive) | 53 µM (inactive) | > 100 µM (inactive) | > 100 µM (inactive) | 23.2 µM (inactive) | 30.1 µM (inactive) | > 100 µM (inactive) | 54.3 µM (inactive) | 18.5 µM (inactive) | > 100 µM (inactive) | > 100 µM (inactive) | 35.3 µM (inactive) | – | > 100 µM (inactive)
5 | O=C(O)c1ccc(Nc2ccnc3cc(Cl)ccc23)cc1O | > 100 µM (inactive) | > 100 µM (inactive) | > 100 µM (inactive) | > 100 µM (inactive) | > 100 µM (inactive) | > 100 µM (inactive) | > 100 µM (inactive) | 11.1 µM (inactive) | 61.4 µM (inactive) | 39.6 µM (inactive) | > 100 µM (inactive) | > 100 µM (inactive) | > 100 µM (inactive) | > 100 µM (inactive) | > 100 µM (inactive) | > 100 µM (inactive) | > 100 µM (inactive) | > 100 µM (inactive) | > 100 µM (inactive)
6 | Cc1cccc(Nc2nc(NNC(=O)Cc3ccccc3)nc(NNC(=O)c3ccncc3)n2)c1 | > 10 µM (inactive) | > 10 µM (inactive) | > 10 µM (inactive) | > 10 µM (inactive) | > 10 µM (inactive) | > 10 µM (inactive) | > 10 µM (inactive) | > 10 µM (inactive) | > 10 µM (inactive) | > 10 µM (inactive) | > 10 µM (inactive) | > 10 µM (inactive) | > 10 µM (inactive) | > 10 µM (inactive) | > 10 µM (inactive) | > 10 µM (inactive) | > 10 µM (inactive) | > 10 µM (inactive) | > 10 µM (inactive)
7 | C/C(=C/c1ccccc1)CN(C(=O)/C=C\Sc1ccccc1)C(C)(C)C | > 68.7 µM (inactive) | > 100 µM (inactive) | > 87.5 µM (inactive) | > 100 µM (inactive) | > 100 µM (inactive) | 65.2 µM (inactive) | 28 µM (inactive) | > 91.2 µM (inactive) | > 100 µM (inactive) | 45.4 µM (inactive) | > 100 µM (inactive) | 60.8 µM (inactive) | 24.8 µM (inactive) | > 66.4 µM (inactive) | > 100 µM (inactive) | > 100 µM (inactive) | > 43.7 µM (inactive) | > 70 µM (inactive) | > 100 µM (inactive)

From ChEMBL document CHEMBL1201862, “PubChem BioAssay data set” (2004)
